Test results reported in patent US12466840B2, “Small molecule inhibitors of KRAS proteins” (Merck Sharp & Dohme LLC, priority 2023, dated 2025).
Read-outs that look alike come from different tables or passages of the source.

How the values were obtained:
[1] = system: AsPC-1 cells (homozygous KRAS-G12D); test: Cellular phospho-ERK assay, AsPC-1 cells; format: cell-based; conditions: p-ERK vs. total ERK, read-out: AsPC1 pERK IC50
Protocol: (§1) Procedure for Cellular Phospho-ERK Assay in KRAS Wild Type and Mutant (G12D, G12V) Cell Lines
(§2) MKN-1 cells (JCRB JCRB0252) containing amplified wild-type KRAS, were cultured in growth medium that contains RPMI 1640-GlutaMAX™-I (ThermoFisher Scientific 61870) containing 10% heat inactivated fetal bovine serum (ThermoFisher Scientific 10091148), 1 mM sodium pyruvate and 10 mM HEPES. AsPC-1 cells (ATCC® CRL-1682™), containing homozygous KRAS-G12D activating mutation, were cultured in T150 flask in growth medium (RPMI medium 1640-GlutaMAX™-I (ThermoFisher Scientific 61870) containing 10% fetal bovine serum (ThermoFisher Scientific 10091148)). SW620 cells (ATCC® CRL-227™) containing homozygous KRAS-G12V activating mutation, were cultured in growth medium that contains RPMI 1640-GlutaMAX™-I (ThermoFisher Scientific 61870) containing 10% heat inactivated fetal bovine serum (ThermoFisher Scientific 10091148).
(§3) Cells for the assay were harvested in growth medium after TrypLE (ThermoFisher scientific 12604021) digestion and were seeded in a 384-well collagen coated cell culture plate (Corning 356702) at a density of 10,000-15,000 cells/[…]/well, and incubated at 37° C., 5% CO2 overnight. The compound (with 10 mM stock concentration) dose-response titrations were prepared [30 μM final ERK detection assay concentration and 1:3 dilutions, 10-point dose response] and appropriate amounts (270 nL) of test compounds were dispensed in a 384-well intermediate plate using an Echo 550 liquid handler. 30 μL/well of RPMI medium 1640-GlutaMAX™-I was added to the intermediate plate and the contents of the intermediate plate (10 μL/well) were then transferred to the 384-well collagen coated cell culture plate, which was incubated at 37° C., 5% CO2 for 2 h. After removal of medium from the collagen coated cell culture plate, cells were lysed in lysis buffer from Alpha SureFire® Ultra™ Multiplex p-ERK and total ERK assay kit (PerkinElmer MPSU-PTERK) containing Halt™ Protease and Phosphatase inhibitor cocktail (ThermoFisher Scientific 78446) at room temperature with constant shaking at 300 rpm for 30 minutes. The cell lysates were then transferred to an OptiPlate-384 plate (PerkinElmer 6005620), and the phosphorylation of ERK (p-ERK) and total ERK levels were detected by Alpha SureFire® Ultra™ Multiplex p-EEK kit and total ERK assay kit (PerkinElmer MPSU-PTERK) following the manufacturer's protocol. Assay plates were read on a EnVision Multimode Plate Reader (PerkinElmer), and the ratio of p-ERK vs. total ERK in each well was used as the final readout. Dose response curves were analyzed using a 4-parameter logistic model to calculate IC50 values using Spotfire software.

KRAS G12A = KRAS G12A (Homo sapiens (Human), UniProt P01116, G12A); test: SOS-catalyzed nucleotide exchange assay (GNE), KRAS G12A; format: biochemical; conditions: TR-FRET, 60 min preincubation
Text: Procedure for SOS-Catalyzed Nucleotide Exchange Assay for KRAS-WT, G12C/D/V/A/R/S, G13D, Q61H, HRAS-WT, and NRAS-WT
Recombinant KRAS-G12C protein used in this assay has an additional triple mutation (C51S/C80L/C118S). Whereas KRAS-WT, G12D/V/A/S/R, G13D, Q61H, HRAS and NRAS are in context of their WT protein sequence background. Specifically, the SOS-catalyzed nucleotide exchange assay utilizes a preformed TR-FRET complex containing a specific biotinylated RAS protein (KRAS-WT, G12C/V/D/A/S/R, G13D, Q61H, HRAS-WT, NRAS-WT; described above) with Bodipy-GDP, and Terbium-streptavidin. Compounds are preincubated with this complex for 60 minutes. Subsequently, recombinant human SOS protein and unlabeled GTP are added to initiate the exchange reaction. Small molecule inhibitors stabilize the Bodipy-GDP complex whereas the untreated protein rapidly exchanges Bodipy-GDP for unlabeled GTP resulting in reduced TR-FRET signal.
To assemble the preformed TR-FRET complexes, each biotinylated RAS protein is diluted to 2 μM in an EDTA Buffer (20 mM HEPES pH 7.5, 50 mM sodium chloride, 10 mM EDTA, and 0.01% Tween) and incubated at room temperature for one hour. This mixture is then further diluted to 90 nM in an Assay Buffer (20 mM HEPES pH 7.5, 150 mM sodium chloride, 10 mM magnesium chloride, and 0.005% Tween) containing 15 nM of Terbium-Streptavidin (Invitrogen, catalog #PV3577) and 900 nM of Bodipy-GDP (Invitrogen, catalog #G22360) and incubated at room temperature for six hours. It should be noted that this preformed TR-FRET complex for each of the RAS protein were made ahead of time, aliquoted and stored at −80° C. until the day of the experiment.
Each test compound (10 mM stock in DMSO) is diluted in DMSO to make a final-10-point, 3-fold dilution and is acoustically dispensed into a 384-well assay plate (Corning, catalog #3820) using an Echo 550 (Labcyte). Each well of the assay plate receives 3 μL of a specific 3×RAS preformed TR-FRET complex and 3 μL of Assay Buffer and is incubated at room temperature for 60 minutes (preincubation time). Each well then receives 3 μL of 3× recombinant human SOS protein and GTP (Sigma, G8877) in Assay Buffer and is incubated at room temperature for 30 minutes (G13D), 60 minutes (KRAS WT/G12C/D, H/NRAS) or 90 minutes for G12A/R/S/V and Q61H. The final reaction in each well of 9 μL consists of 3 mM GTP, specific Ras and SOS proteins in the following concentrations: KRAS-G12C/SOS=3 nM/40 nM, KRAS-WT and G12D/SOS=1 nM/40 nM, KRAS-G12V/SOS=1.25 nM/160 nM, KRAS-G12A/S/SOS=1 nM/160 nM, KRAS-G12R/SOS=1 nM/320 nM, KRAS-Q61H/SOS=1 nM/320 nM, KRAS-G13D/SOS=1.25 nM/[…], HRAS-WT and NRAS-WT=1.25 nM/40 nM.
The time-resolved fluorescence resonance energy transfer (TR-FRET) signal is measured on an Envision (PerkinElmer) plate reader: Excitation filter=340 nm; emission1=495 nm; emission2=520 nm; dichroic mirror=D400/D505; delay time=[…]. The signal of each well is determined as the ratio of the emission at 520 nm to that at 495 nm. Percent effect of each well is determined after normalization to control wells containing DMSO (no effect) or a saturating concentration of inhibitor (max effect). The apparent effect as a function of compound concentration is fit to a four-parameter logistic equation.

[2] = system: SW620 cells (homozygous KRAS-G12V); test: Cellular phospho-ERK assay, SW620 cells; format: cell-based; conditions: p-ERK vs. total ERK, read-out: SW620 pERK IC50
Protocol: as §1, §2, §3

Sequence of KRAS G12A (P01116 other isoform, or with tags, fused parts or gaps G12A (already in the parent)): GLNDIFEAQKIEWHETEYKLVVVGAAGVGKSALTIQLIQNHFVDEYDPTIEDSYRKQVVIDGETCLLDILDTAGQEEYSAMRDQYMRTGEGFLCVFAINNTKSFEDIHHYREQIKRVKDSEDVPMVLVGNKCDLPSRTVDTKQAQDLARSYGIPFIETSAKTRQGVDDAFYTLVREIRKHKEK

| Compound | IC50 ([1]; Homo sapiens, ASPC1, 2 h) [nM] | IC50 (KRAS G12A) [nM] | IC50 ([2]; Homo sapiens, SW-620, 2 h) [nM] | IC50 ([1]; 2 h) [nM] | IC50 ([2]; 2 h) [nM] |
| --- | --- | --- | --- | --- | --- |
| CCc1c(F)ccc2cc3[nH]nc(C)c3c(-c3nc4c5c(nc(OC[C@@]67CCCN6C[C@H](F)C7)nc5c3F)N3CCCOC[C@H]3CO4)c12 [Ex-6, (8aS)-5-(5-ethyl-6-fluoro-3-methyl-1H-benzo[f]indazol-4-yl)-4-fluoro-2-(((2R,7aS)-2-fluorotetrahydro-1H-pyrrolizin-7a(5H)-yl)methoxy)-8a,9,12,13-tetrahydro-8H,11H-7,10-dioxa-1,3,6,13a-tetraazanaphtho[1,8-ab]heptalene] | 9.5 | 1 | 3.4 | – | – |
| CCc1c(F)ccc2cc3[nH]ncc3c(-c3nc4c5c(nc(OC[C@@]67CCCN6C/C(=C\F)C7)nc5c3F)N3CCCOC[C@H]3CO4)c12 [Ex-4, (8aS)-5-(5-ethyl-6-fluoro-1H-benzo[f]indazol-4-yl)-4-fluoro-2-(((S,Z)-2-(fluoromethylene)tetrahydro-1H-pyrrolizin-7a(5H)-yl)methoxy)-8a,9,12,13-tetrahydro-8H,11H-7,10-dioxa-1,3,6,13a-tetraazanaphtho[1,8-ab]heptalene] | 2.2 | < 0.69 | < 1.5 | – | – |
| Fc1c(-c2c(C3CC3)c(Cl)cc3[nH]ncc23)nc2c3c(nc(OC[C@@]45CCCN4C[C@H](F)C5)nc13)N1CCCOC[C@H]1CO2 [Ex-3, (8aS)-5-(6-chloro-5-cyclopropyl-1H-indazol-4-yl)-4-fluoro-2-(((2R,7aS)-2-fluorotetrahydro-1H-pyrrolizin-7a(5H)-yl)methoxy)-8a,9,12,13-tetrahydro-8H,11H-7,10-dioxa-1,3,6,13a-tetraazanaphtho[1,8-ab]heptalene] | 15 | – | 3.9 | – | – |
| F/C=C1/CN2CCC[C@@]2(COc2nc3c4c(nc(-c5c(C6CC6)c(Cl)cc6[nH]ncc56)c(F)c4n2)OC[C@@H]2COCCCN32)C1 [Ex-1, (8aS)-5-(6-chloro-5-cyclopropyl-1H-indazol-4-yl)-4-fluoro-2-(((S,Z)-2-(fluoromethylene)tetrahydro-1H-pyrrolizin-7a(5H)-yl)methoxy)-8a,9,12,13-tetrahydro-8H,11H-7,10-dioxa-1,3,6,13a-tetraazanaphtho[1,8-ab]heptalene] | – | < 0.69 | – | 5.1 | 2.6 |
| CCc1c(F)ccc2cc3[nH]ncc3c(-c3nc4c5c(nc(OC[C@@]67CCCN6C[C@H](F)C7)nc5c3F)N3CCCOC[C@H]3CO4)c12 [Ex-2, (8aS)-5-(5-ethyl-6-fluoro-1H-benzo[f]indazol-4-yl)-4-fluoro-2-(((2R,7aS)-2-fluorotetrahydro-1H-pyrrolizin-7a(5H)-yl)methoxy)-8a,9,12,13-tetrahydro-8H,11H-7,10-dioxa-1,3,6,13a-tetraazanaphtho[1,8-ab]heptalene] | – | < 0.69 | – | 7.4 | 2.4 |
| F/C=C1\CN2CCC[C@@]2(COc2nc3c4c(nc(-c5c(C6(F)CC6)c(Cl)cc6[nH]ncc56)c(F)c4n2)OC[C@@H]2COCCCN32)C1 [Ex-5, (8aS)-5-(6-chloro-5-(1-fluorocyclopropyl)-1H-indazol-4-yl)-4-fluoro-2-(((S,Z)-2-(fluoromethylene)tetrahydro-1H-pyrrolizin-7a(5H)-yl)methoxy)-8a,9,12,13-tetrahydro-8H,11H-7,10-dioxa-1,3,6,13a-tetraazanaphtho[1,8-ab]heptalene] | 3.2 | 0.83 | 1.3 | – | – |
| CCc1c(F)ccc2cc3[nH]nc(C)c3c(-c3nc4c5c(nc(OC[C@@]67CCCN6C/C(=C\F)C7)nc5c3F)N3CCCOC[C@H]3CO4)c12 [Ex-7, (8aS)-5-(5-ethyl-6-fluoro-3-methyl-1H-benzo[f]indazol-4-yl)-4-fluoro-2-(((S,Z)-2-(fluoromethylene)tetrahydro-1H-pyrrolizin-7a(5H)-yl)methoxy)-8a,9,12,13-tetrahydro-8H,11H-7,10-dioxa-1,3,6,13a-tetraazanaphtho[1,8-ab]heptalene] | – | 1.3 | – | 7.1 | 2.5 |
